Here are results for 15 compounds from ChEMBL document CHEMBL1136216, “Potent quinoxaline-based inhibitors of PDGF receptor tyrosine kinase activity. Part 2: the synthesis and biological activities of RPR127963 an orally bioavailable inhibitor” (Bioorg Med Chem Lett, 2003).

pIC50: −log10 of the molar value. Bounds are passed on as bounds.

The target of data set [1] is T1, Platelet-derived growth factor receptor (Homo sapiens, UniProt P09619+P16234). The data set can be described thus: Inhibition of Platelet-derived growth factor receptor. The format is protein-complex assay.
Data set [2] deals with T1, Platelet-derived growth factor receptor. The data set can be described thus: Inhibition of Platelet-derived growth factor receptor at 1 uM. The format is protein-complex assay.
The target is the same in data set [3]. Description: Inhibition of Platelet-derived growth factor receptor at 10 uM. The format is protein-complex assay.
A short description of data set [4]: Bioavailability in rat after 1 day dosing. Type of data set: ADME, organism-based. The note with it: in vivo.
Data set [5] in a line: Bioavailability in rat after 4 day dosing. Type of data set: ADME, organism-based. As to conditions: in vivo.
For another data set, the system named is HASMC. The data set can be described thus: Inhibition of mitogenesis in human aortic smooth muscle cells (HASMC). The format is functional, cell-based.
The target of data set [6] is Protein kinase C (PKC) (Homo sapiens) (UniProt O94806+P41743+P17252+P05129+Q05655+P05771+Q05513+Q02156+P24723+Q15139+Q04759). The data set can be described thus: Inhibition of Protein kinase C at 100 uM. Type of data set: protein assay.
The nature of data set [7]: % Bioavailability after 1 day of the drug administration in rats. Type of data set: ADME, organism-based. As to conditions: rat, in vivo.
Data set [8] deals with Macrophage colony-stimulating factor 1 receptor (Homo sapiens) (UniProt P07333). Description: Inhibition of Colony stimulating factor 1 receptor at 30 uM.
Sequence of Macrophage colony-stimulating factor 1 receptor (Homo sapiens) (P07333 whole entry): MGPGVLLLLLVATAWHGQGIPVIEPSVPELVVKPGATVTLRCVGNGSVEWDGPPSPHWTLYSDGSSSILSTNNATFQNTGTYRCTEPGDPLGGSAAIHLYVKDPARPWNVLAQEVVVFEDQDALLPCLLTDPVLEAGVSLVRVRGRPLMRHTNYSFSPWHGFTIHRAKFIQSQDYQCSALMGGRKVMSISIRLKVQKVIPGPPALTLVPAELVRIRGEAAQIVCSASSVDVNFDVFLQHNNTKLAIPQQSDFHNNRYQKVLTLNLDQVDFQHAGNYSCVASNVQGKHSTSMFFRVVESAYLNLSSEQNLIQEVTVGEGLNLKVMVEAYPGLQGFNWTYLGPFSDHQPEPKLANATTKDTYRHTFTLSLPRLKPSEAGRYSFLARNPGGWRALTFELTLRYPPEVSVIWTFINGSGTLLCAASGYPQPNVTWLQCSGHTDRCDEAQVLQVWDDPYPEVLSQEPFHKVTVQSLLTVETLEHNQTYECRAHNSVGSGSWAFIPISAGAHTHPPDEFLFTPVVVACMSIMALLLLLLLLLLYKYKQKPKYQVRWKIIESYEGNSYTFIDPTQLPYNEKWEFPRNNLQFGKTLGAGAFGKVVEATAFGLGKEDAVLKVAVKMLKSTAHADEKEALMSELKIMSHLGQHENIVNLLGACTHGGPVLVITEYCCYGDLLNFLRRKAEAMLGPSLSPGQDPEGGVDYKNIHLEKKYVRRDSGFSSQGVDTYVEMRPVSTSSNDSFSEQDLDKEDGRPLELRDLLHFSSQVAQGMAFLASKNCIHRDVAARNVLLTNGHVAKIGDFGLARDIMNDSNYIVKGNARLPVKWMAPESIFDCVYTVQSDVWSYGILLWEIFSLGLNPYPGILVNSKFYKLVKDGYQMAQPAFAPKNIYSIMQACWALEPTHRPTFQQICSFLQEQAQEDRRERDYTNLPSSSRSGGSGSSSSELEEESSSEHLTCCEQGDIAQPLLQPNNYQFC
For data set [9], the target named is Tyrosine-protein kinase JAK2 (Homo sapiens, UniProt O60674). Description: Inhibition of Janus kinase 2.
Sequence of Tyrosine-protein kinase JAK2 (O60674 whole entry): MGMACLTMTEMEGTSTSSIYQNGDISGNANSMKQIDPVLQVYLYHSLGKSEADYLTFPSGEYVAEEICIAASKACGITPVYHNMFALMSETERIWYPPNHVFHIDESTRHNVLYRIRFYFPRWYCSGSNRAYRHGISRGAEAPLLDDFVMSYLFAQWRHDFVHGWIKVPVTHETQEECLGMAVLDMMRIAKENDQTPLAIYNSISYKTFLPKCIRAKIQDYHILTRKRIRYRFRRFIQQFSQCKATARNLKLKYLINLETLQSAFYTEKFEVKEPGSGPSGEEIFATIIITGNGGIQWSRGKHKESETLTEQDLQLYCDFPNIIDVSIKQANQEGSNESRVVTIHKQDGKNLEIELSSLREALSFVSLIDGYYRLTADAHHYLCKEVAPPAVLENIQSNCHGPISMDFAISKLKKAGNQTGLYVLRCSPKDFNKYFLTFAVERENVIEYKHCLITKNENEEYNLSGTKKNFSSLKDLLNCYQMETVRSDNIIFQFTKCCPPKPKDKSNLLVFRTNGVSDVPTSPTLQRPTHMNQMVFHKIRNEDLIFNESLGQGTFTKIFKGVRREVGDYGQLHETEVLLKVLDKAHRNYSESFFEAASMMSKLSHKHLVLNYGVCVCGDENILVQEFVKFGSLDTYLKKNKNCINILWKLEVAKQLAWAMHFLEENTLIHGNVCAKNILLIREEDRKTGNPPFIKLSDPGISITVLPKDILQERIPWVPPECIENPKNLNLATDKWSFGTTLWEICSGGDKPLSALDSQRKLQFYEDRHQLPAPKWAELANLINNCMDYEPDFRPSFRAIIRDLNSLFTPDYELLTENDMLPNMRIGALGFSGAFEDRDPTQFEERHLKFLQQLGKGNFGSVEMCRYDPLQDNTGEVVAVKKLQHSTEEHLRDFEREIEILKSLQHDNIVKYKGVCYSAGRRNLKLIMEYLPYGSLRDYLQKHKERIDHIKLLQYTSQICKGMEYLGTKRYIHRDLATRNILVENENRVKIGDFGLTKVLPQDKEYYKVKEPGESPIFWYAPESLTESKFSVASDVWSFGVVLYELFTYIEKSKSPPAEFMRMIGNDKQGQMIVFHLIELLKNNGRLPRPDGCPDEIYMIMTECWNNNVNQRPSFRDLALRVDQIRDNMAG
Data set [10] concerns the target T2, Tyrosine-protein kinase JAK3 (Homo sapiens, UniProt P52333).
T2 sequence (P52333 whole entry): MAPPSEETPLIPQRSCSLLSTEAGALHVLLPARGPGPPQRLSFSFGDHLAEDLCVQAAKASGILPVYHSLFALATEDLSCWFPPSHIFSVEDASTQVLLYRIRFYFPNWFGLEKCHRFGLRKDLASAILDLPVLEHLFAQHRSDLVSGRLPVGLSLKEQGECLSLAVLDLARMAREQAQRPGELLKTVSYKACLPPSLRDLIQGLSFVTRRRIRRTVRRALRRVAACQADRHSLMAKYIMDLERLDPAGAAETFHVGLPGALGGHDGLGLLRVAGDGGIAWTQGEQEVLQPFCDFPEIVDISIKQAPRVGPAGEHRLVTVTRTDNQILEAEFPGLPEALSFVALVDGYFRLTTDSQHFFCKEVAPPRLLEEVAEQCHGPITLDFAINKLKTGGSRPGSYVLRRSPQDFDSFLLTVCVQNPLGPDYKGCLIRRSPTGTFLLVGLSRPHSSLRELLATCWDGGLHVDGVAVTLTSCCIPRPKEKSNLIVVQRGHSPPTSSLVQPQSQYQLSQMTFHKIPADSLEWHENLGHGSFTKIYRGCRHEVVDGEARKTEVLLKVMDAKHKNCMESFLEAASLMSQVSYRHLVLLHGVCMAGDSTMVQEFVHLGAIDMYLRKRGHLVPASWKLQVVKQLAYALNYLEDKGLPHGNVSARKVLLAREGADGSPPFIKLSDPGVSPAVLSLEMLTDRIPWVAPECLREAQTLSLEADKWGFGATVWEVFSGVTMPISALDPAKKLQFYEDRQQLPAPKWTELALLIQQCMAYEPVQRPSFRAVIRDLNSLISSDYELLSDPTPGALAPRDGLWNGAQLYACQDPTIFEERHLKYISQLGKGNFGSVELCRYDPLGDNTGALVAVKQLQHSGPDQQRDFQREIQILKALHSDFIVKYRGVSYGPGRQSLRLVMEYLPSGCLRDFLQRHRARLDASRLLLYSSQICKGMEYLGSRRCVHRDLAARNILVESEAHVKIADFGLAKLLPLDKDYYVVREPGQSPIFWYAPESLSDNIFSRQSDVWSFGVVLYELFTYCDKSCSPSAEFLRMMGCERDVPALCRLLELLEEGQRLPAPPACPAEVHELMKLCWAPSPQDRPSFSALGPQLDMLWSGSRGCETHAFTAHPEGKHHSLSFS
The data set can be described thus: Inhibition of Janus kinase 3.

The nature of data set [11]: % Bioavailability after 4 day of the drug administration in rats. The format is ADME, organism-based. As to conditions: rat, in vivo.
Data set [12] deals with Tyrosine-protein kinase SYK (Homo sapiens) (UniProt P43405). Description: Inhibition of Syk tyrosine kinase at 10 uM.
Data set [13] concerns the target T3, Tyrosine-protein kinase ZAP-70 (Homo sapiens) (UniProt P43403).
T3 sequence (whole entry): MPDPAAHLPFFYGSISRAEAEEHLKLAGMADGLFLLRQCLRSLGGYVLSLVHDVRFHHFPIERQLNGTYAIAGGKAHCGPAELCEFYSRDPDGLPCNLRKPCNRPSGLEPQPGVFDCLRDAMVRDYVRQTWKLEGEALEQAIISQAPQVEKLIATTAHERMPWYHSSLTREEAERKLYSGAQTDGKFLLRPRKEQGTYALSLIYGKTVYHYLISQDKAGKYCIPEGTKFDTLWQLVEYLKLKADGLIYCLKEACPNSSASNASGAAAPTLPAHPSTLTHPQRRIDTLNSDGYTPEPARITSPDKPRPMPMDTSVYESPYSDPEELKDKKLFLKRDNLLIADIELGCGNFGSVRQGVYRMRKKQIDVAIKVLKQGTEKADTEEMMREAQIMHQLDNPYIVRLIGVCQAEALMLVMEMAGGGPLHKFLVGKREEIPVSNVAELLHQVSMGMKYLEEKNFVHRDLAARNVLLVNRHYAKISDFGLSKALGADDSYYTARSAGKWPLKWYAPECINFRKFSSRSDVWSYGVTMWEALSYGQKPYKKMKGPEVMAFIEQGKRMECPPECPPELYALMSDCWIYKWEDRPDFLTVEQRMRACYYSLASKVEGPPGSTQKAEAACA
Description: Inhibition of Zeta-chain (TCR) associated protein kinase 70kDa, Zap70 at 10 uM.

Data set [14] has as its target Insulin-like growth factor 1 receptor (Homo sapiens, UniProt P08069). Description: Inhibitory concentration against IGF kinase was determined.
The target of data set [15] is cAMP-dependent protein kinase (PKA) (Homo sapiens) (UniProt P22694+P17612+P22612). Description: Inhibition of Protein kinase A at 100 uM. The format is protein assay.
Data set [16] addresses Hepatocyte growth factor receptor (Homo sapiens) (UniProt P08581). Description: Inhibition of Hepatocyte growth factor receptor at 30 uM. Type of data set: cell-based.
Data set [17] has as its target Vascular endothelial growth factor receptor (Homo sapiens) (UniProt P17948+P35916+P35968). Description: Inhibition of VEGF receptor kinase at 30 uM. The format is protein assay.
The target in data set [18] is c-Jun N-terminal kinase, JNK (Homo sapiens, UniProt P45983+P53779+P45984). Description: Inhibition of JNK, c-Jun N-terminal kinase. Type of data set: protein assay.
The nature of data set [19]: Inhibition of Collagen production. The format is functional.

Sequence of Hepatocyte growth factor receptor (Homo sapiens) (P08581 whole entry): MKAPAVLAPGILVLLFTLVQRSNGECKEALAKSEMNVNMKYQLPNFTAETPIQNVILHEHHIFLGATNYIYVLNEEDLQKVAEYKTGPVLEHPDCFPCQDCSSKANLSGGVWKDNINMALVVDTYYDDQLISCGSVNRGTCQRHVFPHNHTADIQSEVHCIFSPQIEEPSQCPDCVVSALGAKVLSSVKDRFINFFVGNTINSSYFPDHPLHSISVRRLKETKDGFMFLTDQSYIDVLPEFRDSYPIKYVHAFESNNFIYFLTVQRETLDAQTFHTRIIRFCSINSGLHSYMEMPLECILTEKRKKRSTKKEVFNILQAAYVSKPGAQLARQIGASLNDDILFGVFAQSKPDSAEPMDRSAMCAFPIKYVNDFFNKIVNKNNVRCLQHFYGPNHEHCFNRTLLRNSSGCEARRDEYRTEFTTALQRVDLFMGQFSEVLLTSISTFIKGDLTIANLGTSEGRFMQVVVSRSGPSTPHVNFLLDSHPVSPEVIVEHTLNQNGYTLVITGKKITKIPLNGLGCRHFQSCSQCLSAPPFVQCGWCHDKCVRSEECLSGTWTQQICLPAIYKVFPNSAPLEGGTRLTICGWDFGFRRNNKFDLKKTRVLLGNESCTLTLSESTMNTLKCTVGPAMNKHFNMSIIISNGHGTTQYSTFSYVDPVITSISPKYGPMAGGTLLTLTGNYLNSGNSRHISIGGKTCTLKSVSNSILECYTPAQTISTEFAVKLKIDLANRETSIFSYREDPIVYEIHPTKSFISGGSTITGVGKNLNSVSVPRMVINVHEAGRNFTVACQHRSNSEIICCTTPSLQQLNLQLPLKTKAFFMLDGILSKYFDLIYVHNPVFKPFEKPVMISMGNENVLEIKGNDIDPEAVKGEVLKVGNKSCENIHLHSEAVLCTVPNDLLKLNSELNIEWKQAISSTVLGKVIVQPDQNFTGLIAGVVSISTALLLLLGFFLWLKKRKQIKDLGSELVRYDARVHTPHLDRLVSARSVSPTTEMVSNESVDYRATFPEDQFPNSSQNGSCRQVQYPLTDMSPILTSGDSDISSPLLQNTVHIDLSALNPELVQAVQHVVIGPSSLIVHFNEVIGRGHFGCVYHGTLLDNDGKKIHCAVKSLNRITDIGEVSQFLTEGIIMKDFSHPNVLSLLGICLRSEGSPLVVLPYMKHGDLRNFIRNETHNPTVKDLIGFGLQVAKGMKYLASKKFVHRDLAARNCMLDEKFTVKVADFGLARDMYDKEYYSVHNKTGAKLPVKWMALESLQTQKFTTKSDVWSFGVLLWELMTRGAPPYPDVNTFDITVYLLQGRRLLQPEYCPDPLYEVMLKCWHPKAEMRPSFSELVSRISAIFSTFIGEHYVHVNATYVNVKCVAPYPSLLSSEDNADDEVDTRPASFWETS
Sequence of Insulin-like growth factor 1 receptor (P08069 31-736 limits assumed): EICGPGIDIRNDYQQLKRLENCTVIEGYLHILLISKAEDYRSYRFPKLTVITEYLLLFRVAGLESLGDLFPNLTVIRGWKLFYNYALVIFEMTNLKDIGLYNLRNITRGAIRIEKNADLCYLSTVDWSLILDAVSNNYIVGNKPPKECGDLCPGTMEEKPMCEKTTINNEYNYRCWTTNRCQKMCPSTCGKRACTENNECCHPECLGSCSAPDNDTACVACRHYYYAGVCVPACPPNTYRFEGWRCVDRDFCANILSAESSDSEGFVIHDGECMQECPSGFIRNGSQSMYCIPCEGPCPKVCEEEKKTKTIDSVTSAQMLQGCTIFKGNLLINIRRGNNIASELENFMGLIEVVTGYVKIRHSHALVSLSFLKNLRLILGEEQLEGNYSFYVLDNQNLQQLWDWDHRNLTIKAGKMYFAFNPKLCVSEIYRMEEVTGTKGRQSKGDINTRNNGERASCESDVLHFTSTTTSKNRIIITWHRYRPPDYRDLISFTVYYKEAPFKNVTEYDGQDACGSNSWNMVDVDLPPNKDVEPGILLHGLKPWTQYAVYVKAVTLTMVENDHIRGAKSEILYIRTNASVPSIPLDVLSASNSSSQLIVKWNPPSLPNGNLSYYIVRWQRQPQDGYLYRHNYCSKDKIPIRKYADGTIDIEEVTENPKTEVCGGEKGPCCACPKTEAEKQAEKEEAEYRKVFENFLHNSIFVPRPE
Sequence of Insulin-like growth factor 1 receptor (P08069 741-1367 limits assumed): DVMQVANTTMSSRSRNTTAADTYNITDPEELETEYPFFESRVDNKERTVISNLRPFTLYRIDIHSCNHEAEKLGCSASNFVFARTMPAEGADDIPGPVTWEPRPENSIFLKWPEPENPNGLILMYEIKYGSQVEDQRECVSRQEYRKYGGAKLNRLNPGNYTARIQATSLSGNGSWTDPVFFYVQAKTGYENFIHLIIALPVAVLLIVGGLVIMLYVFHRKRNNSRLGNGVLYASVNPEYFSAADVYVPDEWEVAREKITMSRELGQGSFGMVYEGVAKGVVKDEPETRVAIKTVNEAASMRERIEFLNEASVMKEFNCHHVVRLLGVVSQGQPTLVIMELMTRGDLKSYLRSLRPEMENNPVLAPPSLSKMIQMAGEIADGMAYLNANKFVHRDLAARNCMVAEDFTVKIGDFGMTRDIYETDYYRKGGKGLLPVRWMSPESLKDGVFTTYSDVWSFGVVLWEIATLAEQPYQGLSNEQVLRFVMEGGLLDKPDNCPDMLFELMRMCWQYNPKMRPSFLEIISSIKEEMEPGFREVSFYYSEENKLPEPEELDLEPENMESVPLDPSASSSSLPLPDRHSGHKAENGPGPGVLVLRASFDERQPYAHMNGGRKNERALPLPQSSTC

Turning to `CNC(=O)C1CCC(Nc2cnc3cc(OC)c(OC)cc3n2)CC1` (stereo not drawn), the pIC50 (usually −log10 of the IC50, conventionally taken in molar units) in [1] is 5.51.
`COc1cc2ncc(NC3CCC(C(=O)O)CC3)nc2cc1OC` (stereo not drawn): the inhibition (commonly the change of the read-out against control, counted positive when it falls) in [2] turned out to be 15%.
Regarding `COc1cc2ncc(N[C@H]3CC[C@@H](C(=O)OC)CC3)nc2cc1OC`, the pIC50 in [1] is 7.55.
On to `COc1cc2ncc(N[C@H]3CC[C@H](C(=O)OC)CC3)nc2cc1OC`, for which the pIC50 in [1] is 6.46.
Regarding `COC(=O)C1CCC(Nc2cnc3cc(OC)c(OC)cc3n2)CC1` (stereo not drawn), the pIC50 in data set [1] was 7.31.
On to `COc1cc2ncc(N3C(=O)C4CCC3CC4)nc2cc1OC`, for which the inhibition in data set [3] stood at 14%.
For `COc1cc2ncc(NC3CCCC(N)C3)nc2cc1OC` (stereo not drawn), the inhibition in data set [2] is -9%.
Turning to `COc1cc2cc(-c3ccsc3)cnc2cc1OC`, the results for the bioavailability in data set [4] and in data set [5] were 49% and 21%, respectively.
In the case of `COc1cc2ncc(N[C@H]3CC[C@@H](O)[C@H](C)C3)nc2cc1OC`, the inhibition in [2] stood at 5%. The pIC50 in the data set with HASMC is less than 5.00.
With `COc1cc2ncc(NC3CCC(C(N)=O)CC3)nc2cc1OC` (stereo not drawn), the pIC50 in data set [1] is 6.03.
On to `COc1cc2ncc(N[C@@H]3CC4CC3C[C@H]4O)nc2cc1OC` (stereo partly drawn), for which the pIC50 is 6.79 with HASMC and 7.62 in [1].
As to `COc1cc2ncc(NC3CCC(C(=O)N4CCN(C)CC4)CC3)nc2cc1OC` (stereo not drawn), in [2], the inhibition stood at 10%.
As to `COc1cc2ncc(N[C@@H]3CC[C@H](O)[C@@H](C)C3)nc2cc1OC`, the pIC50 is 6.87 in the data set with HASMC and 7.74 in data set [1].
As to `COc1cc2ncc(NC3CCCCC3)nc2cc1OC`, the bioavailability (in general, dose-corrected exposure relative to a reference, in per cent) in data set [4] is 17%; in [5], 16%.
As for `COc1cc2ncc(N[C@H]3CC[C@H](O)CC3)nc2cc1OC`, the inhibition was determined as 7% in data set [6]; 2% in data set [8]; 54% in [12]; 0% in [13]; 3% in [15]; 17% in data set [16]. Also, in [17], the inhibition amounted to 0%. The bioavailability came to 82% in [7] and 72% in [11]. Moreover, the pIC50 was less than 4.30 in data set [9], less than 4.30 in [10], less than 5.00 in [14] and 6.41 in data set [19]. Further, the IC50 (as a rule, the concentration that inhibits the measured activity by half) in data set [18] was more than 50000 nM.
